# Measured values reported in ChEMBL document CHEMBL3098019, “Structure-based screening for the discovery of new carbonic anhydrase VII inhibitors” (Eur J Med Chem, 2014).
# Key:
# Carbonic anhydrase 2 = Carbonic anhydrase 2 (Homo sapiens, UniProt P00918); assay: Inhibition of human recombinant carbonic anhydrase 2 preincubated for 15 mins by stopped flow CO2 hydration assay
# Carbonic anhydrase 1 = Carbonic anhydrase 1 (Homo sapiens, UniProt P00915); assay: Inhibition of human recombinant carbonic anhydrase 1 preincubated for 15 mins by stopped flow CO2 hydration assay
# Chain of Carbonic anhydrase 1 (P00915 whole entry): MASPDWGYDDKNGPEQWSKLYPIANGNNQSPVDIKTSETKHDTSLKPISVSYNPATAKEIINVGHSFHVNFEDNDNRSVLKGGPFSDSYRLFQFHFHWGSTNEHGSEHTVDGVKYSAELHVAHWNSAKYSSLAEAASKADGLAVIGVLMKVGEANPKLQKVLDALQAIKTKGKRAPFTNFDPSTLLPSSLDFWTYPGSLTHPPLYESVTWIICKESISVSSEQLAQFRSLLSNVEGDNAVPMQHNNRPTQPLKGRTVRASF
# Carbonic anhydrase 9 = Carbonic anhydrase 9 (Homo sapiens, UniProt Q16790)
# Description: Inhibition of human catalytic domain of carbonic anhydrase 9 preincubated for 15 mins by stopped flow CO2 hydration assay
# Carbonic anhydrase 14 = Carbonic anhydrase 14 (Homo sapiens, UniProt Q9ULX7); assay: Inhibition of human recombinant carbonic anhydrase 14 preincubated for 15 mins by stopped flow CO2 hydration assay
# Chain of Carbonic anhydrase 14 (Q9ULX7 whole entry): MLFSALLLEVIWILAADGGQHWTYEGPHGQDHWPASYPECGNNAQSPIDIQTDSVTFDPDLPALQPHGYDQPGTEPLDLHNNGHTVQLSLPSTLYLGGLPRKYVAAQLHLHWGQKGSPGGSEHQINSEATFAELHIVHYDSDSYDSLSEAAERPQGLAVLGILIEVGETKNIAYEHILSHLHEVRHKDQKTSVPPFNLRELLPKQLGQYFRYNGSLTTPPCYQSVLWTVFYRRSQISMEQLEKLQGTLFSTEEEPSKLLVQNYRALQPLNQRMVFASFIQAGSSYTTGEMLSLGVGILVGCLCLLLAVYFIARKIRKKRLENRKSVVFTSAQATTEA
Ki (Carbonic anhydrase 2),Ki (Carbonic anhydrase 1),Ki (Carbonic anhydrase 9),Ki (Carbonic anhydrase 14),SMILES
73.2 nM,8.9 nM,53.2 nM,7.6 nM,NS(=O)(=O)Cc1ccc(NC(=O)C2CC=CCC2)cc1 (configuration not stated)
6.3 nM,8.6 nM,,19.4 nM,NS(=O)(=O)Cc1ccc(NS(=O)(=O)c2ccc(Br)cc2Cl)cc1
